Data from BindingDB's records for doi:10.1016/j.bioorg.2007.03.001 (Burnham Institute For Medical Research, 2007).

Biological target: Isoform Bcl-X(L) of Bcl-2-like protein 1 (Bcl-xL) (Homo sapiens, UniProt Q07817)
Assay: DELFIA Assay
Excerpt: In order to figure whether these compounds were capable of displacing the interactions between Bci-XL and it's pro-apoptotic counterparts, it was testes in a heterogeneous lanthanide-based assay that have recently developed based on the DELFIA (dissociation enhanced lanthanide fluoro-immuno assay)technology (Perkin-Elmer).

Sequence of Isoform Bcl-X(L) of Bcl-2-like protein 1 (Bcl-xL) (Q07817 whole entry G70A, canonical isoform): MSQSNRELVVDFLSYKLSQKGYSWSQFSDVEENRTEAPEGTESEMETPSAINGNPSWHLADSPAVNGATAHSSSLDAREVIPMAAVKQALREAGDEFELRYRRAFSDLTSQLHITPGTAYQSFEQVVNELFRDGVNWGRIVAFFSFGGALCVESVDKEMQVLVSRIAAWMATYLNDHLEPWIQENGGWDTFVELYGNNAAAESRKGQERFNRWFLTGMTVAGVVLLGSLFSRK

| IC50 [µM] | Kd [µM] | SMILES |
| --- | --- | --- |
| 0.5 |  | O=C(O)c1ccccc1C(=O)c1ccc(Sc2ccc(Cl)cc2)c([N+](=O)[O-])c1 [BI-21C6] |
| 3.3 |  | Cc1csc(NC(=O)c2ccccc2C(=O)O)c1-c1nc2ccccc2s1 [BI-21C4] |
| 5.7 |  | O=C(O)c1ccccc1C(=O)c1ccc(Sc2ccccc2)c([N+](=O)[O-])c1 [BI-21C7] |
| 5.1 | 19.8 | N#Cc1c(-c2ccc3c(c2)OCO3)cc(-c2ccccc2O)[nH]c1=O [BI-21C5] |
